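Exposure lasted 48 hours, with cells grown in 96-well plates and compounds tested at five concentrations. At the GI50, growth is halved. TGI denotes the concentration required for complete inhibition of growth.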
Key:
Assay in all cases: NCI anticancer screen, dose series, 48 h
DU-145 prostate = system: DU-145 prostate
EKVX NSCLC = system: EKVX NSCLC
A498 renal = system: A498 renal
SF-295 CNS = system: SF-295 CNS
SK-MEL-28 melanoma = system: SK-MEL-28 melanoma
SW-620 colon = system: SW-620 colon
UO-31 renal = system: UO-31 renal
RPMI-8226 leukemia = system: RPMI-8226 leukemia
BT-549 breast = system: BT-549 breast
786-0 renal = system: 786-0 renal
PC-3 prostate = system: PC-3 prostate
U251 CNS = system: U251 CNS
HOP-92 NSCLC = system: HOP-92 NSCLC
UACC-257 melanoma = system: UACC-257 melanoma
MOLT-4 leukemia = system: MOLT-4 leukemia
OVCAR-8 ovarian = system: OVCAR-8 ovarian
SR leukemia = system: SR leukemia
ACHN renal = system: ACHN renal
NCI-H522 lung = system: NCI-H522 lung
IGROV1 ovarian = system: IGROV1 ovarian
SNB-75 CNS = system: SNB-75 CNS
HS 578T breast = system: HS 578T breast
MCF7 breast = system: MCF7 breast
SN12C renal = system: SN12C renal
HCT-116 colon = system: HCT-116 colon
MDA-MB-435 = system: MDA-MB-435
SNB-19 CNS = system: SNB-19 CNS
M14 melanoma = system: M14 melanoma
NCI-H460 lung = system: NCI-H460 lung
SF-268 CNS = system: SF-268 CNS
RXF 393 renal = system: RXF 393 renal
NCI/ADR-RES ovarian = system: NCI/ADR-RES ovarian
UACC-62 melanoma = system: UACC-62 melanoma
T-47D breast = system: T-47D breast
K-562 leukemia = system: K-562 leukemia
NCI-H226 lung = system: NCI-H226 lung
CCRF-CEM leukemia = system: CCRF-CEM leukemia
CAKI-1 renal = system: CAKI-1 renal
TK-10 renal = system: TK-10 renal
NCI-H23 lung = system: NCI-H23 lung
MDA-MB-231 breast = system: MDA-MB-231 breast
HT29 colon = system: HT29 colon
LOX IMVI melanoma = system: LOX IMVI melanoma
SK-MEL-2 melanoma = system: SK-MEL-2 melanoma
KM12 colon = system: KM12 colon
MALME-3M melanoma = system: MALME-3M melanoma
OVCAR-4 ovarian = system: OVCAR-4 ovarian
OVCAR-3 ovarian = system: OVCAR-3 ovarian
SK-MEL-5 melanoma = system: SK-MEL-5 melanoma
HOP-62 NSCLC = system: HOP-62 NSCLC
HCT-15 colon = system: HCT-15 colon
A549 NSCLC = system: A549 NSCLC
HL-60(TB) leukemia = system: HL-60(TB) leukemia
COLO 205 colon = system: COLO 205 colon
OVCAR-5 ovarian = system: OVCAR-5 ovarian
HCC-2998 colon = system: HCC-2998 colon
SK-OV-3 ovarian = system: SK-OV-3 ovarian
SF-539 CNS = system: SF-539 CNS

## O=C(NCCc1ccccc1)C(c1csc2ccccc12)N(C(=O)CCl)c1ccc(-c2cnco2)cc1 (centres undefined)
DU-145 prostate
  GI50: 0.461 µM
  TGI: 2.3 µM
EKVX NSCLC
  GI50: 0.543 µM
  TGI: 2.3 µM
A498 renal
  GI50: 0.62 µM
  TGI: 1.48 µM
SF-295 CNS
  GI50: 0.156 µM
  TGI: 0.302 µM
SK-MEL-28 melanoma
  GI50: 1.69 µM
  TGI: 3.12 µM
SW-620 colon
  GI50: 0.391 µM
  TGI: 1.29 µM
UO-31 renal
  GI50: 0.0173 µM
  TGI: 0.0354 µM
RPMI-8226 leukemia
  GI50: 0.171 µM
  TGI: 0.474 µM
BT-549 breast
  GI50: 0.228 µM
  TGI: 0.574 µM
786-0 renal
  GI50: 0.0197 µM
  TGI: 0.038 µM
PC-3 prostate
  GI50: 0.511 µM
  TGI: 1.9 µM
U251 CNS
  GI50: 0.163 µM
  TGI: 0.644 µM
HOP-92 NSCLC
  GI50: 0.174 µM
  TGI: 0.443 µM
UACC-257 melanoma
  GI50: 1.63 µM
  TGI: 3.17 µM
MOLT-4 leukemia
  GI50: 0.209 µM
  TGI: 0.678 µM
OVCAR-8 ovarian
  GI50: 0.169 µM
  TGI: 1.28 µM
SR leukemia
  GI50: 0.0268 µM
  TGI: 0.107 µM
ACHN renal
  GI50: 0.139 µM
  TGI: 0.537 µM
NCI-H522 lung
  GI50: 0.0134 µM
  TGI: 0.0295 µM
IGROV1 ovarian
  GI50: 0.161 µM
  TGI: 0.331 µM
SNB-75 CNS
  GI50: 0.502 µM
  TGI: 0.99 µM
HS 578T breast
  GI50: 1.44 µM
  TGI: 7.2 µM
MCF7 breast
  GI50: 1.43 µM
  TGI: 3.26 µM
SN12C renal
  GI50: 0.412 µM
  TGI: 2.03 µM
HCT-116 colon
  GI50: 0.889 µM
  TGI: 2.37 µM
MDA-MB-435
  GI50: 1.54 µM
  TGI: 3.18 µM
SNB-19 CNS
  GI50: 1.7 µM
  TGI: 3.16 µM
M14 melanoma
  GI50: 1.38 µM
  TGI: 2.83 µM
NCI-H460 lung
  GI50: 0.631 µM
SF-268 CNS
  GI50: 0.362 µM
  TGI: 0.958 µM
RXF 393 renal
  GI50: 0.145 µM
  TGI: 0.587 µM
NCI/ADR-RES ovarian
  GI50: 0.114 µM
  TGI: 1.17 µM
UACC-62 melanoma
  GI50: 1.3 µM
  TGI: 2.85 µM
T-47D breast
  GI50: 1.02 µM
  TGI: 2.89 µM
K-562 leukemia
  GI50: 0.509 µM
  TGI: > 20.7 µM
NCI-H226 lung
  GI50: 1.07 µM
  TGI: 3.43 µM
CCRF-CEM leukemia
  GI50: 0.0229 µM
  TGI: 0.0594 µM
CAKI-1 renal
  GI50: 0.096 µM
  TGI: 0.487 µM
TK-10 renal
  GI50: 1.75 µM
  TGI: 3.21 µM
NCI-H23 lung
  GI50: 0.0209 µM
  TGI: 0.0508 µM
MDA-MB-231 breast
  GI50: 0.226 µM
  TGI: 1.36 µM
HT29 colon
  GI50: 0.257 µM
  TGI: 1.06 µM
LOX IMVI melanoma
  GI50: < 0.01 µM
SK-MEL-2 melanoma
  GI50: 1.64 µM
  TGI: 3.12 µM
KM12 colon
  GI50: 0.291 µM
  TGI: 0.898 µM
MALME-3M melanoma
  GI50: 0.146 µM
  TGI: 0.308 µM
OVCAR-4 ovarian
  GI50: 1.7 µM
  TGI: 5.14 µM
OVCAR-3 ovarian
  GI50: 0.156 µM
  TGI: 0.828 µM
SK-MEL-5 melanoma
  GI50: 1.62 µM
  TGI: 3.01 µM
HOP-62 NSCLC
  GI50: 0.347 µM
  TGI: 1.07 µM
HCT-15 colon
  GI50: 0.596 µM
  TGI: 1.84 µM
A549 NSCLC
  GI50: 0.393 µM
  TGI: 1.64 µM
HL-60(TB) leukemia
  GI50: 0.762 µM
  TGI: 2.8 µM
COLO 205 colon
  GI50: 1.56 µM
  TGI: 3.28 µM
OVCAR-5 ovarian
  GI50: 0.682 µM
  TGI: 2.07 µM
HCC-2998 colon
  GI50: 1.69 µM
  TGI: 3.22 µM
SK-OV-3 ovarian
  GI50: 1.25 µM
  TGI: 2.69 µM
SF-539 CNS
  GI50: 0.126 µM
  TGI: 0.257 µM

## COc1cc(C2C3=C(COC3=O)N(CCO)c3cc4c(cc32)OCCO4)cc(OC)c1O (centres undefined)
DU-145 prostate
  GI50: 1.71 µM
  TGI: > 21.7 µM
EKVX NSCLC
  GI50: 3.5 µM
  TGI: > 50 µM
A498 renal
  GI50: 1.41 µM
  TGI: > 23.4 µM
SF-295 CNS
  GI50: 1.22 µM
  TGI: 4.12 µM
SK-MEL-28 melanoma
  GI50: 1.15 µM
  TGI: > 50 µM
SW-620 colon
  GI50: 1.83 µM
  TGI: > 50 µM
UO-31 renal
  GI50: > 16.7 µM
  TGI: > 50 µM
RPMI-8226 leukemia
  GI50: 2.18 µM
  TGI: > 50 µM
BT-549 breast
  GI50: 5.71 µM
  TGI: > 27.8 µM
786-0 renal
  GI50: 7.03 µM
  TGI: > 50 µM
PC-3 prostate
  GI50: 2.17 µM
  TGI: > 50 µM
U251 CNS
  GI50: 2 µM
  TGI: > 50 µM
HOP-92 NSCLC
  GI50: > 50 µM
  TGI: > 50 µM
UACC-257 melanoma
  GI50: > 10.2 µM
  TGI: > 50 µM
MOLT-4 leukemia
  GI50: 3.68 µM
  TGI: > 50 µM
OVCAR-8 ovarian
  GI50: 2.76 µM
  TGI: > 50 µM
SR leukemia
  GI50: 1.86 µM
  TGI: > 50 µM
ACHN renal
  GI50: 5.94 µM
  TGI: > 50 µM
NCI-H522 lung
  GI50: 0.182 µM
  TGI: 2.8 µM
IGROV1 ovarian
  GI50: 1.17 µM
  TGI: > 16.5 µM
SNB-75 CNS
  GI50: 0.713 µM
  TGI: > 50 µM
HS 578T breast
  GI50: 1.14 µM
  TGI: > 50 µM
MCF7 breast
  GI50: 0.957 µM
  TGI: > 50 µM
SN12C renal
  GI50: 4.1 µM
  TGI: > 50 µM
HCT-116 colon
  GI50: 2.15 µM
  TGI: > 50 µM
MDA-MB-435
  GI50: 0.331 µM
  TGI: 1.71 µM
SNB-19 CNS
  GI50: 2.11 µM
  TGI: > 50 µM
M14 melanoma
  GI50: 1.43 µM
  TGI: > 21 µM
NCI-H460 lung
  GI50: 1.75 µM
  TGI: > 28.5 µM
SF-268 CNS
  GI50: 3.38 µM
  TGI: > 50 µM
RXF 393 renal
  GI50: 0.971 µM
  TGI: > 50 µM
NCI/ADR-RES ovarian
  GI50: > 31.8 µM
  TGI: > 50 µM
UACC-62 melanoma
  GI50: 0.961 µM
  TGI: > 50 µM
T-47D breast
  GI50: 3.38 µM
  TGI: > 50 µM
K-562 leukemia
  GI50: 1.89 µM
  TGI: > 50 µM
NCI-H226 lung
  GI50: > 19.5 µM
  TGI: > 50 µM
CCRF-CEM leukemia
  GI50: 1.84 µM
  TGI: > 50 µM
CAKI-1 renal
  GI50: 2.84 µM
  TGI: > 45 µM
TK-10 renal
  GI50: 6.61 µM
  TGI: > 50 µM
NCI-H23 lung
  GI50: 2.46 µM
  TGI: > 50 µM
MDA-MB-231 breast
  GI50: 4.41 µM
  TGI: > 50 µM
HT29 colon
  GI50: 1.67 µM
  TGI: > 18.5 µM
LOX IMVI melanoma
  GI50: 2.49 µM
  TGI: > 50 µM
SK-MEL-2 melanoma
  TGI: > 13.4 µM
KM12 colon
  GI50: 1.5 µM
  TGI: > 37 µM
MALME-3M melanoma
  GI50: 1.23 µM
  TGI: > 50 µM
OVCAR-4 ovarian
  GI50: 3.78 µM
  TGI: > 50 µM
OVCAR-3 ovarian
  GI50: 0.947 µM
  TGI: 2.29 µM
SK-MEL-5 melanoma
  GI50: 1.29 µM
  TGI: > 20.5 µM
HOP-62 NSCLC
  GI50: 2.72 µM
  TGI: > 50 µM
HCT-15 colon
  GI50: 11.7 µM
  TGI: > 50 µM
A549 NSCLC
  GI50: 9.71 µM
  TGI: > 50 µM
HL-60(TB) leukemia
  GI50: 1.52 µM
  TGI: > 13.5 µM
COLO 205 colon
  GI50: 1.67 µM
  TGI: 12 µM
OVCAR-5 ovarian
  GI50: 49.9 µM
  TGI: > 50 µM
HCC-2998 colon
  GI50: 2.04 µM
  TGI: 19 µM
SK-OV-3 ovarian
  GI50: 2.29 µM
  TGI: > 50 µM
SF-539 CNS
  GI50: 1.22 µM
  TGI: > 14.8 µM

From PubChem BioAssay (NCI)
